Measurements taken from US20260226076A1, “FUSED MULTICYCLIC COMPOUNDS AND THEIR USE AS PARP1 INHIBITORS” (LAEKNA THERAPEUTICS SHANGHAI CO., LTD., priority 2022, published 2026).
Read-outs that look alike come from different tables or passages of the source.

Key:
PARP1 = PARP1 (Homo sapiens, UniProt P09874); experiment: PARP1-DNA enzymatic trapping assay; assay type: biochemical; conditions: 10 nM PARP1, 5 nM DNA probe, 2 mM NAD+, fluorescence polarization read at 30 minutes
Description: Enzymatic trapping assay is to measure the dissociation process of PARP1 from fluorescein-labeled DNA during the enzymatic activity. Assay was conducted at a total 10 μL of reaction volume, including 10 nM PARP1 and 5 nM DNA probe in the binding buffer (50 mM Tris-HCl pH 8.0, 50 mM NaCl, 1 mM MgCl2, 0.1 mM EDTA, and 0.01% IGEPAL), and was commenced by adding a final concentration of 2 mM NAD+ substrate.
PARP1 Poly-ADP ribosylation (PARylation) inhibitory assay was conducted with compounds dissolved in DMSO at a starting concentration of 5 μM. Dissolved compounds were added to 384-well microplate and premixed with PARPI enzyme and DNA probe for 20 minutes incubation. Enzymatic reactions were started by adding NAD+ to mixture, and each well was read at 30 minutes by microplate reader (VICTOR Nivo®, PerkinElmer) to detect the fluorescence polarization signal at 480 nm excitation/530 nm dual emission.
All measured IC50 values were calculated using four parameters dose-response inhibition model in GraphPad Prism 8.0.2 (La Jolla, California, USA, www.graphpad.com).

MDA-MB-436 cells = experiment: Cell proliferation assay (MDA-MB-436); assay type: cell-based; conditions: at least 7 days, Cell-Titer Glo, read-out: MDA-MB-436 anti-proliferation assay
Description: (§1) For PARPi sensitivity, exponentially growing MDA-MB-436 and DLD1 BRCA2^−/− cells were seed in 96 or 384-well plates at very low density with the goal of not splitting for at least 7 days (typically 0.3k-1.2k cells/well). Cells were plated on […] and treated with DMSO or increasing concentrations of PARP1 inhibitors on Day 0. At the end of the experiment, cell viability was estimated using Cell-Titer Glo (Promega).

DLD1 BRCA2−/− cells = experiment: Cell proliferation assay (DLD1 BRCA2−/−); assay type: cell-based; conditions: at least 7 days, Cell-Titer Glo, read-out: DLD1 BRCA2−/− anti-proliferation assay
Description: as §1

[1] = Homo sapiens, MDA-MB-436, 168 h

Chain of PARP1 (P09874 whole entry): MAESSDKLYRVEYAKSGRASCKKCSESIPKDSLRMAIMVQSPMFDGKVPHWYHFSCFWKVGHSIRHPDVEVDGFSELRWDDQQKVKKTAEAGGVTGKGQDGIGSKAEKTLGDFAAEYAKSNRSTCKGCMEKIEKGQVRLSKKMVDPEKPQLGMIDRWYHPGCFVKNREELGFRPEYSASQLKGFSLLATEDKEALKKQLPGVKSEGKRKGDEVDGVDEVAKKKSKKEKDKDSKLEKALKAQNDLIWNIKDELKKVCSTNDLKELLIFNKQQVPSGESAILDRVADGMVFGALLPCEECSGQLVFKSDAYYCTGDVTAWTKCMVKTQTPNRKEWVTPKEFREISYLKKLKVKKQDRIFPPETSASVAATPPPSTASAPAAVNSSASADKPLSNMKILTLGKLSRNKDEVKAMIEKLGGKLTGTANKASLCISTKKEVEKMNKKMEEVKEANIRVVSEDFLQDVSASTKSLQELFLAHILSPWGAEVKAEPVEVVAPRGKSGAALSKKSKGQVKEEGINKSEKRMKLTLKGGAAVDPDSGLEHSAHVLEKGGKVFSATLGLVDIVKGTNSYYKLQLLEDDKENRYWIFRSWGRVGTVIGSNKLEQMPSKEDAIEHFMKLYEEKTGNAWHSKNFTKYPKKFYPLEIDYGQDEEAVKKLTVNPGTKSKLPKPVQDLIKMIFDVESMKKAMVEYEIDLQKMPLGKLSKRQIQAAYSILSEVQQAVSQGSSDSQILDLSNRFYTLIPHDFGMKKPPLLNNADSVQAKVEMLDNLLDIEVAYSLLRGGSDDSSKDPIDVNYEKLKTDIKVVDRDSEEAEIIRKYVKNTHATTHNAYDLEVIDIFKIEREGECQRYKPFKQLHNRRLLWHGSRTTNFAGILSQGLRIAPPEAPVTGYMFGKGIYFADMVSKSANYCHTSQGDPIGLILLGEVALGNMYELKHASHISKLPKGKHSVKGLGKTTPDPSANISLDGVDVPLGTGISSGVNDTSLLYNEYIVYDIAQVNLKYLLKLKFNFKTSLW

| SMILES | IC50 (PARP1) [nM] | IC50 (MDA-MB-436 cells; [1]) [nM] | IC50 (DLD1 BRCA2−/− cells; Homo sapiens, DLD-1, 168 h) [nM] | IC50 (MDA-MB-436 cells) [nM] | IC50 (DLD1 BRCA2−/− cells) [nM] |
| --- | --- | --- | --- | --- | --- |
| CNC(=O)c1ccc(N2C[C@@H]3CN(Cc4cnc5cc(C)c(=O)[nH]c5c4)C[C@H]3C2)c(F)n1 (racemic) [Compound 21] | 17.8 | 1.91 | 1.76 | – | – |
| CNC(=O)c1ccc(N2C[C@@H]3CN(Cc4cnc5cc(C)c(=O)[nH]c5c4)C[C@H]3C2)c(C)n1 [Compound 24] | > 500 | 407 | 371 | – | – |
| CNC(=O)c1ccc(N2C[C@H]3CN(Cc4cnc5c6c(c(=O)[nH]c5c4)OCCC6)C[C@@H]3C2)c(F)n1 [Compound 81] | 7.6 | 1.05 | 4.66 | – | – |
| CCc1cc2ncc(CN3C[C@H]4CN(c5ccc(C(=O)NC)nc5F)C[C@@H]4C3)cc2[nH]c1=O [Compound 28] | 9.73 | – | – | 3.93 | 5.02 |
| COCCNC(=O)c1ccc(N2C[C@H]3CN(Cc4ccc5c6c(c(=O)[nH]c5c4)COCC6)C[C@@H]3C2)c(F)n1 [Compound 67] | 10.4 | 0.64 | 2.16 | – | – |
| CNC(=O)c1ccc(N2C[C@@H]3CN(Cc4cnc5c(c4)[nH]c(=O)n4cccc54)C[C@H]3C2)cn1 (racemic) [Compound 12] | 17.3 | 5.03 | 3.68 | – | – |
| CCc1cc2ncc(CN3C[C@@H]4CN(c5ccc(C(=O)NCCOC)nc5F)C[C@H]4C3)cc2[nH]c1=O [Compound 34] | 10.5 | 0.78 | 1.09 | – | – |
| O=C(N[C@H]1CCOC1)c1ccc(N2C[C@H]3CN(Cc4cnc5c6c(c(=O)[nH]c5c4)CCC6)C[C@@H]3C2)c(F)n1 [Compound 51] | 7.36 | 0.7 | 2.96 | – | – |
| Cc1cc2ncc(CN3C[C@@H]4CN(c5ccc(C(=O)NC6CC6)nc5F)C[C@H]4C3)cc2[nH]c1=O [Compound 30] | 8.09 | 0.37 | 0.45 | – | – |
| CNC(=O)c1ccc(N2C[C@H]3CN(Cc4cnc5c6c(c(=O)[nH]c5c4)CCC6)C[C@@H]3C2)cn1 [Compound 47] | 9.42 | 1.1 | 0.77 | – | – |
| CNC(=O)c1ccc(N2C[C@H]3CN(Cc4ccc5c6c(c(=O)[nH]c5c4)OCCC6)C[C@@H]3C2)c(F)n1 [Compound 88] | 7.9 | 1.42 | 4.56 | – | – |
| O=C(N[C@@H]1CCOC1)c1ccc(N2C[C@H]3CN(Cc4cc5[nH]c(=O)c6c(c5cn4)CCC6)C[C@@H]3C2)c(F)n1 [Compound 56] | 5.17 | 0.71 | 3.37 | – | – |
| CNC(=O)c1ccc(N2C[C@H]3CN(Cc4ccc5nc(C)c(=O)[nH]c5c4)C[C@@H]3C2)c(F)n1 [Compound 31] | 8.35 | 0.98 | 1.49 | – | – |
| CO[C@H]1C[C@@H](NC(=O)c2ccc(N3C[C@H]4CN(Cc5cnc6c7c(c(=O)[nH]c6c5)COCC7)C[C@@H]4C3)cn2)C1 [Compound 75] | 8.6 | 0.93 | 10.2 | – | – |
| CNC(=O)c1ccc(N2C[C@H]3CN(Cc4ccc5c6c(c(=O)[nH]c5c4)CCOC6)C[C@@H]3C2)cn1 [Compound 78] | 26.7 | 1.41 | 9.14 | – | – |
| CNC(=O)c1ccc(N2C[C@H]3CN(Cc4cc5[nH]c(=O)c(C)cc5cn4)C[C@@H]3C2)c(F)n1 [Compound 36] | 8.44 | 2.08 | 1.51 | – | – |
| CO[C@H]1C[C@H](NC(=O)c2ccc(N3C[C@H]4CN(Cc5cnc6c7c(c(=O)[nH]c6c5)COCC7)C[C@@H]4C3)c(F)n2)C1 [Compound 74] | 8.26 | 0.57 | 4.98 | – | – |
| CCC1Oc2ncc(CN3C[C@H]4CN(c5ccc(C(=O)NC)nc5F)C[C@@H]4C3)cc2NC1=O (mixture of isomers) [Compound 8] | 47.3 | 5.13 | 13.9 | – | – |
| CNC(=O)c1ccc(N2C[C@@H]3CN(Cc4cnc5c(c4)NC(=O)[C@@H]4CCCN54)C[C@H]3C2)cn1 (racemic) [Compound 7] | 24.8 | 2.59 | 4.63 | – | – |
| O=C(NC1COC1)c1ccc(N2C[C@H]3CN(Cc4ccc5c6c(c(=O)[nH]c5c4)COC6)C[C@@H]3C2)c(F)n1 [Compound 61] | 9.14 | 1.35 | 7.97 | – | – |

| SMILES | IC50 (PARP1) [nM] | IC50 (MDA-MB-436 cells; [1]) [nM] | IC50 (DLD1 BRCA2−/− cells; Homo sapiens, DLD-1, 168 h) [nM] | IC50 (MDA-MB-436 cells) [nM] | IC50 (DLD1 BRCA2−/− cells) [nM] |
| --- | --- | --- | --- | --- | --- |
| CCc1cc2cnc(CN3C[C@@H]4CN(c5ccc(C(=O)NC)nc5)C[C@@H]4C3)cc2[nH]c1=O [Compound 39] | 9.74 | 1.39 | 1.22 | – | – |
| CNC(=O)c1ccc(N2C[C@H]3CN(Cc4cc5[nH]c(=O)c6c(c5cn4)COC6)C[C@@H]3C2)c(F)n1 [Compound 63] | 101 | 7.29 | 141 | – | – |
| CNC(=O)c1ccc(N2C[C@H]3CN(Cc4cnc5cc(OC)c(=O)[nH]c5c4)C[C@@H]3C2)c(F)n1 [Compound 33] | 7.81 | 2.48 | 4.13 | – | – |
| CCc1cc2ncc(CN3C[C@H]4CN(c5ccc(C(=O)NC)nc5F)C[C@@H]4C3)cc2[nH]c1=O (racemic) [Compound 19] | 6.13 | – | – | 0.59 | 0.59 |
| O=C(N[C@H]1CCOC1)c1ccc(N2C[C@H]3CN(Cc4cc5[nH]c(=O)c6c(c5cn4)CCC6)C[C@@H]3C2)c(F)n1 [Compound 57] | 18.9 | 1.24 | 8.41 | – | – |
| O=C(N[C@@H]1CCOC1)c1ccc(N2C[C@H]3CN(Cc4cnc5c6c(c(=O)[nH]c5c4)CCC6)C[C@@H]3C2)c(F)n1 [Compound 50] | 7.86 | 1.05 | 4.04 | – | – |
| O=C(NC1COC1)c1ccc(N2C[C@H]3CN(Cc4ccc5c6c(c(=O)[nH]c5c4)OCCC6)C[C@@H]3C2)c(F)n1 [Compound 89] | 4.32 | 1.08 | 8.28 | – | – |
| CCc1cc2ncc(CN3C[C@@H]4CN(c5ccc(C(=O)NC)nc5)C[C@@H]4C3)cc2[nH]c1=O [Compound 1] | 42.9 | 410 | > 500 | – | – |
| CCc1cc2ncc(CN3C[C@H]4CN(c5ccc(C(=O)NC)nc5)C[C@@H]4C3)cc2[nH]c1=O (racemic) [Compound 2] | 10.7 | – | – | 0.4 | 1.98 |
| O=C(NC1CCOCC1)c1ccc(N2C[C@H]3CN(Cc4cc5[nH]c(=O)c6c(c5cn4)CCC6)C[C@@H]3C2)c(F)n1 [Compound 58] | 7.68 | 2.51 | 12.9 | – | – |
| CNC(=O)c1ccc(N2C[C@H]3CN(Cc4cnc5c6c(c(=O)[nH]c5c4)COC6)C[C@@H]3C2)c(F)n1 [Compound 62] | 7.82 | 1.53 | 5.86 | – | – |
| CCC1Oc2ncc(CN3C[C@H]4CN(c5ccc(C(=O)NC6CC6)nc5F)C[C@@H]4C3)cc2NC1=O (mixture of isomers) [Compound 18] | 27.3 | 11.4 | 12.7 | – | – |
| CNC(=O)c1ccc(N2C[C@@H]3CN(Cc4ccc5nc(C)c(=O)[nH]c5c4F)C[C@H]3C2)cn1 (racemic) [Compound 6] | 262 | 76.1 | 49.3 | – | – |
| CCC1Oc2ncc(CN3C[C@H]4CN(c5ccc(C(=O)NC6CC6)nc5)C[C@@H]4C3)cc2NC1=O (mixture of isomers) [Compound 16] | > 500 | > 500 | > 500 | – | – |
| COCCNC(=O)c1ccc(N2C[C@H]3CN(Cc4cc5[nH]c(=O)c6c(c5cn4)CCC6)C[C@@H]3C2)c(F)n1 [Compound 55] | 6.96 | 1.24 | 4.66 | – | – |
| CO[C@H]1C[C@@H](NC(=O)c2ccc(N3C[C@H]4CN(Cc5ccc6c7c(c(=O)[nH]c6c5)OCCC7)C[C@@H]4C3)c(F)n2)C1 [Compound 90] | 5.16 | 1.74 | 8.3 | – | – |
| CNC(=O)c1ccc(N2C[C@@H]3CN(Cc4ccc5nc(C)c(=O)[nH]c5c4F)C[C@H]3C2)c(F)n1 [Compound 11] | 323 | > 500 | > 500 | – | – |
| CCC1Oc2ncc(CN3C[C@H]4CN(c5ccc(C(=O)NC)nc5)C[C@@H]4C3)cc2NC1=O (mixture of isomers) [Compound 14] | 33.1 | – | – | 9.85 | 5.59 |
| O=C(NC1COC1)c1ccc(N2C[C@H]3CN(Cc4ccc5c6c(c(=O)[nH]c5c4)COCC6)C[C@@H]3C2)c(Cl)n1 [Compound 84] | 411 | – | – | – | – |
